For one data set, the system named is Wistar rats. Kind of data set: Rat Penile Erection Model. In kind it is in vivo. The conditions noted are these: for Induced Penile Erection in Rats, Incidence (%): subcutaneous, animals with 1 or more erections in 60 minutes; for induced penile erections in rats (significance): subcutaneous administration, doses of 0.01 μmol/kg to 0.10 μmol/kg. Here is the method:
Wistar rats were used as a primary animal model to study penile erection in vivo. All experiments were carried out between 9:00 AM and 3:00 PM in a diffusely illuminated testing room with a red light. Animals were weighed and allowed to adapt to the testing room for 60 minutes before the beginning of experiments. Rats were placed individually in a transparent cage (20×30×30 cm) after drug injection.
(L)-Ascorbic acid in saline (1 mg/mL) was used as vehicle. Twelve animals were used per dose.

A further data set has as its system Male Fitch ferrets. Also on record: species or system ferret. To be noted: in vivo, sc. The procedure:
Male Fitch ferrets (body weights 1.0-1.5 kg) were obtained from Marshall Farms. Ferrets were fasted overnight before experimentation. Apomorphine or a compound of the present invention was administrated subcutaneously; animals were placed individually in observation cages and the drug-induced emesis and signs of nausea were determined (by direct observation) for a period of 90 minutes following drug injection. Nausea was characterized by behaviors such as licking, gagging, backing, head burying, and intense abdominal grooming. Emesis was usually preceded by these behaviors and was characterized by rhythmic abdominal contractions which were associated with vomiting or retching movement.
Sterile saline was used as vehicle. Six animals were used per dose.

Consider `CN1CCc2cccc3c2[C@H]1Cc1ccc(O)c(O)c1-3` [Apomorphine, (6aR) 5,6,6a,7-tetrahydro-6-methyl-4H-dibenzo[de,g]quinoline-10,11-diol, reference compound], for which the “incidence of rat penile erections” value worked out at 83% in the data set with Wistar rats (positive control of Table 1, dose 0.1 μmol/kg) and 93% with Wistar rats (positive control of Table 2, dose 0.1 μmol/kg).

Take `c1ccc(N2CCN(Cc3nc4ccccc4[nH]3)CC2)nc1` [2-[(4-pyridin-2-ylpiperazin-1-yl)methyl]-1H-benzimidazole]: the “Induced Penile Erection in Rats, Incidence (%)” value (shortened to “Induced Penile Erection … (%)”) with Wistar rats (dose 0.003 μmol/kg, Table 1) was 25%; in the data set on Wistar rats (dose 0.01 μmol/kg, Table 1), 50%; in the data set with Wistar rats (dose 0.03 μmol/kg, Table 1), 83%; in the data set on Wistar rats (dose 0.10 μmol/kg, Table 1), 58%. For the same molecule, the “induced penile erections in rats (significance)” value in the data set with Wistar rats is reported as “statistically significant”. Further, the “emesis in ferrets (in words)” value in the data set with Male Fitch ferrets is “did not induce emesis”.

Broadly, the melting point is the temperature, or range, at which the solid turns liquid. `c1cnc(N2CCN(Cc3nc4ccccc4[nH]3)CC2)nc1` [Example 2, 2-[(4-pyrimidin-2-ylpiperazin-1-yl)methyl]-1H-benzimidazole] returned a melting point of 198 to 200 °C.

`Oc1ccc(N2CCN(Cc3nc4ccccc4[nH]3)CC2)nc1` [6-[4-(1H-benzimidazol-2-ylmethyl)piperazin-1-yl]pyridin-3-ol] displayed a melting point of 144 to 145 °C. For the same molecule, the “Induced Penile Erection … (%)” value in the data set on Wistar rats (dose 0.01 μmol/kg, Table 2) worked out at 42%. Besides, the “Induced Penile Erection … (%)” value in the data set with Wistar rats (dose 0.03 μmol/kg, Table 2) worked out at 58%. Further, in the data set with Wistar rats (dose 0.1 μmol/kg, Table 2), the “Induced Penile Erection … (%)” value stood at 58%. In the data set on Wistar rats (dose 0.3 μmol/kg, Table 2), the “Induced Penile Erection … (%)” value worked out at 33%. Also, the “induced penile erections in rats (significance)” value in the data set with Wistar rats is recorded as “statistically significant”.

Turning to `O=C(N1CCCC1)n1c(CN2CCN(c3ccccn3)CC2)nc2ccccc21` [Example 9, 2-[(4-pyridin-2-ylpiperazin-1-yl)methyl]-1-(pyrrolidin-1-ylcarbonyl)-1H-benzimidazole], the melting point lay within 120 to 121 °C.

`N#Cc1cccnc1N1CCN(Cc2nc3ccccc3[nH]2)CC1` [Example 4, 2-[4-(1H-benzimidazol-2-ylmethyl)piperazin-1-yl]nicotinonitrile] came in with a melting point of 208 to 210 °C.

Turning to `CC1CN(c2ccccn2)CCN1Cc1nc2ccccc2[nH]1` (stereo not drawn) [Example 24, 2-[(2-methyl-4-pyridin-2-ylpiperazin-1-yl)methyl]-1H-benzimidazole], the melting point lay in the range of 207 to 209 °C.

Take `CN(C)C(=O)n1c(CN2CCN(c3ccccn3)CC2)nc2ccccc21` [Example 10, N,N-dimethyl-2-[(4-pyridin-2-ylpiperazin-1-yl)methyl]-1H-benzimidazole-1-carboxamide]: the melting point fell in the range of 174 to 176 °C.

`CCOc1ccccc1N1CCN(Cc2nc3ccccc3[nH]2)CC1` [Example 19, 2-{[4-(2-ethoxyphenyl)piperazin-1-yl]methyl}-1H-benzimidazole]: the melting point is 95 to 100 °C.

With `N#Cc1ccccc1N1CCN(Cc2nc3ccccc3[nH]2)CC1` [Example 12, 2-[4-(1H-benzimidazol-2-ylmethyl)piperazin-1-yl]benzonitrile], the melting point lay in the range of 236 to 237 °C.

`CSc1ccccc1N1CCN(Cc2nc3ccccc3[nH]2)CC1` [Example 18, 2-({4-[2-(methylthio)phenyl]piperazin-1-yl}methyl)-1H-benzimidazole] came in with a melting point of 214 to 216 °C.

Turning to `C[C@H]1CN(c2ccccn2)CCN1Cc1nc2ccccc2[nH]1` [Example 25, 2-{[(2S)-2-methyl-4-pyridin-2-ylpiperazin-1-yl]methyl}-1H-benzimidazole], the melting point was 149 to 151 °C.

`Fc1ccccc1N1CCN(Cc2nc3ccccc3[nH]2)CC1` [Example 14, 2-{[4-(2-fluorophenyl)piperazin-1-yl]methyl}-1H-benzimidazole] had a melting point of 262 to 264 °C.

Turning to `Clc1ccccc1N1CCN(Cc2nc3ccccc3[nH]2)CC1` [Example 13, 2-{[4-(2-chlorophenyl)piperazin-1-yl]methyl}-1H-benzimidazole], the melting point was in the range of 245 to 246 °C.

With `C[C@@H]1CN(c2ccccn2)CCN1Cc1nc2ccccc2[nH]1` [Example 26, 2-{[(2R)-2-methyl-4-pyridin-2-ylpiperazin-1-yl]methyl}-1H-benzimidazole], the melting point fell in the range of 151 to 153 °C.

Consider `Oc1ccc(N2CCN(Cc3nc4ccccc4[nH]3)CC2)cc1` [Example 17, 4-[4-(1H-benzimidazol-2-ylmethyl)piperazin-1-yl]phenol], for which the melting point fell in the range of 206 to 209 °C.

`c1ccc2[nH]c(CN3CCN(c4nccs4)CC3)nc2c1` [Example 7, 2-{[4-(1,3-thiazol-2-yl)piperazin-1-yl]methyl}-1H-benzimidazole] yielded a melting point of 203 to 205 °C.

Take `Oc1ccccc1N1CCN(Cc2nc3ccccc3[nH]2)CC1` [Example 20, 2-[4-(1H-benzimidazol-2-ylmethyl)piperazin-1-yl]phenol]: the melting point was 208 to 216 °C.

`Fc1cccnc1N1CCN(Cc2nc3ccccc3[nH]2)CC1` [Example 28, 2-{[4-(3-fluoropyridin-2-yl)piperazin-1-yl]methyl}-1H-benzimidazole] came in with a melting point of 210 to 212 °C.

The record behind these values is US20020169166A1, “Benzimidazoles that are useful in treating sexual dysfunction” (priority 2001, published 2002).
